These results are taken from patent US12528816B2, “Substituted imidazo [1,2-b] pyridazines and [1, 2, 4] triazolo [ 4,3-b] pyridazines as camkii inhibitors” (Cardurion Pharmaceuticals, INC., priority 2020, dated 2026).

This experiment concerns the target T1, human CaMKIIδ (Homo sapiens, UniProt Q13557).
T1 construct: Full-length, glutathione-S-transferase(GST)-tagged, human CaMKIIδ was purchased from Carna Biosciences; purchased Carna Biosciences (CaMKIIδ); Wako Pure Chemical Industries (calmodulin) 02-111
Kind of experiment: Evaluation of in vitro CaMKII inhibitory activity (binding assay, TR-FRET). Particulars: in vitro CaMKII inhibitory activity (binding assay), human CaMKIIδ; read-out: Act. The protocol:
Evaluation of In Vitro CaMKII Inhibitory Activity (Binding Assay)
In vitro CaMKIIδ inhibitory activity was evaluated by a binding assay.
Full-length bovine calmodulin was purchased from Wako Pure Chemical Industries (Osaka, Japan). Terbium-labeled anti-GST anti body (Tb-anti-GST Ab) was purchased from Life Technologies (Carlsbad, CA, USA). Fluorescent probe ligand, 5,5-difluoro-7,9-dimethyl-3-(3-oxo-3-((3-((4-(3-(piperazin-1-yl)phenyl)pyrimidin-2-yl)amino)phenyl)amino) propyl)-5H-dipyrrolo[1,2-c:2′,1′-f]
Time-resolved fluorescence resonance energy transfer (TR-FRET) assay
The fluorescent probe ligand, 5,5-difluoro-7,9-dimethyl-3-(3-oxo-3-((3-((4-(3-(piperazin-1-yl)phenyl)pyrimidin-2-yl)amino)phenyl)amino) propyl)-5H-dipyrrolo[1,2-c:2′,1′-f] […] After shaded incubation of the protein-probe mixture on ice for 30 min, the premix was dispensed in the assay plate including test inhibitors with 4 fold dilution series of eight concentrations. After 1 hr incubation at room temperature, TR-FRET signals were measured in duplicate using an EnVision microplate reader (Perkin Elmer, Waltham, MA, USA).
The half maximal inhibitory concentration (IC50) of test compounds was calculated by fitting the data with the logistic equation using XLfit (IDBS, Guildford, UK).
For orientation: TR-FRET usually uses a lanthanide donor and a delayed reading to cut background.
For `COc1ncnc(-c2cnc3ccc(-c4cccc(O[C@@H](C)Cn5cnnn5)c4)nn23)c1C#N` [Example 320, 4-methoxy-6-[6-(3-{[(2S)-1-(1H-tetrazol-1-yl)propan-2-yl]oxy}phenyl)imidazo[1,2-b]pyridazin-3-yl]pyrimidine-5-carbonitrile], the IC50 is less than 0.01 µM.

Turning to `COc1ccnc(-c2cnc3ccc(-c4ccc(F)c(O[C@@H](C)Cn5cnnn5)c4)nn23)c1C#N` [Example 321, 2-[6-(4-fluoro-3-{[(2S)-1-(1H-tetrazol-1-yl)propan-2-yl]oxy}phenyl)imidazo[1,2-b]pyridazin-3-yl]-4-methoxypyridine-3-carbonitrile], the IC50 was less than 0.01 µM. `C[C@@H](Cn1cnnn1)Oc1cccc(-c2ccc3ncc(-c4cc(F)ccc4C#N)n3n2)n1` [Example 325, 4-fluoro-2-[6-(6-{[(2S)-1-(1H-tetrazol-1-yl)propan-2-yl]oxy}pyridin-2-yl)imidazo[1,2-b]pyridazin-3-yl]benzonitrile]: the IC50 is less than 0.01 µM. In the case of `C[C@@H](Cn1cnnn1)Oc1cncc(-c2ccc3ncc(-c4cc(F)ccc4C#N)n3n2)n1` [Example 326, 4-fluoro-2-[6-(6-{[(2S)-1-(1H-tetrazol-1-yl)propan-2-yl]oxy}pyrazin-2-yl)imidazo[1,2-b]pyridazin-3-yl]benzonitrile], the IC50 was less than 0.01 µM. As to `C[C@@H](Cn1cnnn1)Oc1nccc(-c2ccc3ncn(-c4cc(F)ccc4C#N)c3n2)n1` [Example 342, 4-fluoro-2-[5-(2-{[(2S)-1-(1H-tetrazol-1-yl)propan-2-yl]oxy}pyrimidin-4-yl)-3H-imidazo[4,5-b]pyridin-3-yl]benzonitrile], the IC50 was in the range of 0.01 to 0.1 µM. Consider `C[C@@H](Cn1cnnn1)Oc1cccc(-c2ccc3ncn(-c4cc(F)ccc4C#N)c3n2)n1` [Example 345, 4-fluoro-2-[5-(6-{[(2S)-1-(1H-tetrazol-1-yl)propan-2-yl]oxy}pyridin-2-yl)-3H-imidazo[4,5-b]pyridin-3-yl]benzonitrile], for which the IC50 is less than 0.01 µM.

In the case of `C[C@@H](Cn1cnnn1)Oc1cc(-c2ccc3ncn(-c4cc(F)ccc4C#N)c3n2)cnn1` [Example 347, 4-fluoro-2-[5-(6-{[(2S)-1-(1H-tetrazol-1-yl)propan-2-yl]oxy}pyridazin-4-yl)-3H-imidazo[4,5-b]pyridin-3-yl]benzonitrile], the IC50 was in the range of 0.01 to 0.1 µM.

As to `C[C@@H](Cn1cnnn1)Oc1cccc(-c2ccc3ncc(-c4nccc(OCC(F)F)c4C#N)n3n2)c1` [Example 354, 4-(2,2-difluoroethoxy)-2-[6-(3-{[(2S)-1-(1H-tetrazol-1-yl)propan-2-yl]oxy}phenyl)imidazo[1,2-b]pyridazin-3-yl]pyridine-3-carbonitrile], the IC50 was less than 0.01 µM.

For `CNc1ccnc(-c2cnc3ccc(-c4cccc(O[C@@H](C)Cn5cnnn5)c4)nn23)c1C#N` [Example 358, 4-(methylamino)-2-[6-(3-{[(2S)-1-(1H-tetrazol-1-yl)propan-2-yl]oxy}phenyl)imidazo[1,2-b]pyridazin-3-yl]pyridine-3-carbonitrile], the IC50 was less than 0.01 µM. As to `C[C@@H](Cn1cnnn1)Oc1cccc(-c2ccn3nc(F)c(-c4cc(F)ccc4C#N)c3n2)c1` [Example 379, 4-fluoro-2-[2-fluoro-5-(3-{[(2S)-1-(1H-tetrazol-1-yl)propan-2-yl]oxy}phenyl)pyrazolo[1,5-a]pyrimidin-3-yl]benzonitrile], the IC50 was less than 0.01 µM. With `C[C@@H](Cn1cnnn1)Oc1cccc(-c2ccc3ncn(-c4cc(C(F)F)ccc4C#N)c3n2)c1` [Example 383, 4-(difluoromethyl)-2-[5-(3-{[(2S)-1-(1H-tetrazol-1-yl)propan-2-yl]oxy}phenyl)-3H-imidazo[4,5-b]pyridin-3-yl]benzonitrile] the figure was less than 0.01 µM; with `COc1cc(F)cc(-c2cnc3ccc(-c4cncc(O[C@@H](C)Cn5cnnn5)n4)nn23)c1C#N` [Example 392, 4-fluoro-2-methoxy-6-[6-(6-{[(2S)-1-(1H-tetrazol-1-yl)propan-2-yl]oxy}pyrazin-2-yl)imidazo[1,2-b]pyridazin-3-yl]benzonitrile], less than 0.01 µM. On to `COc1cc(F)cc(-n2cnc3ccc(-c4cccc(O[C@@H](C)Cn5cnnn5)n4)nc32)c1C#N` [Example 393, 4-fluoro-2-methoxy-6-[5-(6-{[(2S)-1-(1H-tetrazol-1-yl)propan-2-yl]oxy}pyridin-2-yl)-3H-imidazo[4,5-b]pyridin-3-yl]benzonitrile], for which the IC50 was less than 0.01 µM. With `COc1nccc(-c2cnc3ccc(-c4ccc(F)c(O[C@@H](C)Cn5cnnn5)c4)nn23)c1C#N` [Example 399, 4-[6-(4-fluoro-3-{[(2S)-1-(1H-tetrazol-1-yl)propan-2-yl]oxy}phenyl)imidazo[1,2-b]pyridazin-3-yl]-2-methoxypyridine-3-carbonitrile] the figure was less than 0.01 µM; with `C[C@@H](Cn1cnnn1)Oc1cccc(-c2ccc3ncc(-c4cc(F)cc(OC(F)F)c4C#N)n3n2)n1` [Example 409, 2-(difluoromethoxy)-4-fluoro-6-[6-(6-{[(2S)-1-(1H-tetrazol-1-yl)propan-2-yl]oxy}pyridin-2-yl)imidazo[1,2-b]pyridazin-3-yl]benzonitrile], less than 0.01 µM. In the case of `COc1cc(F)cc(-c2cnc3ccc(-c4cccc(O[C@@H](C)Cn5cnnn5)n4)nn23)c1C#N` [Example 410, 4-fluoro-2-methoxy-6-[6-(6-{[(2S)-1-(1H-tetrazol-1-yl)propan-2-yl]oxy}pyridin-2-yl)imidazo[1,2-b]pyridazin-3-yl]benzonitrile] it was less than 0.01 µM; in that of `C[C@@H](Cn1cnnn1)Oc1cccc(-c2ccc3ncc(-c4cccc(OC(F)F)c4C#N)n3n2)c1` [Example 412, 2-(difluoromethoxy)-6-[6-(3-{[(2S)-1-(1H-tetrazol-1-yl)propan-2-yl]oxy}phenyl)imidazo[1,2-b]pyridazin-3-yl]benzonitrile], less than 0.01 µM. Turning to `C[C@@H](Cn1cnnn1)Oc1cccc(-c2ccc3ncc(-c4cccc(C(F)F)c4C#N)n3n2)c1` [Example 413, 2-(difluoromethyl)-6-[6-(3-{[(2S)-1-(1H-tetrazol-1-yl)propan-2-yl]oxy}phenyl)imidazo[1,2-b]pyridazin-3-yl]benzonitrile], the IC50 was less than 0.01 µM. On to `C[C@@H](Cn1cnnn1)Oc1cccc(-c2ccn3ncc(-c4cc(F)ccc4C#N)c3n2)n1` [Example 416, 4-fluoro-2-[5-(6-{[(2S)-1-(1H-tetrazol-1-yl)propan-2-yl]oxy}pyridin-2-yl)pyrazolo[1,5-a]pyrimidin-3-yl]benzonitrile], for which the IC50 was less than 0.01 µM. In the case of `C[C@@H](Cn1cnnn1)Oc1cccc(-c2ccc3ncc(-c4cc(F)cc(C(F)F)c4C#N)n3n2)n1` [Example 417, 2-(difluoromethyl)-4-fluoro-6-[6-(6-{[(2S)-1-(1H-tetrazol-1-yl)propan-2-yl]oxy}pyridin-2-yl)imidazo[1,2-b]pyridazin-3-yl]benzonitrile], the IC50 was less than 0.01 µM. In the case of `CC(=O)c1cccc(-c2cnc3ccc(-c4cccc(O[C@@H](C)Cn5cnnn5)c4)nn23)c1C#N` [Example 426, 2-acetyl-6-[6-(3-{[(2S)-1-(1H-tetrazol-1-yl)propan-2-yl]oxy}phenyl)imidazo[1,2-b]pyridazin-3-yl]benzonitrile] it was less than 0.01 µM.
